Test results taken from ChEMBL document CHEMBL5370533 (Eur J Med Chem, 2023).

How the values were obtained:
[1] = AUC (0 to t) in Beagle dog at […], po; assay type: ADME, organism-based, Canis lupus familiaris; parameters: dose 1.5 mg/kg, route po; conditions: in vivo
BaF3 [2] = assay: cells; assay type: functional, cell-based; conditions: Mus musculus, BaF3, 72 h
Description: Antiproliferative activity against mouse BaF3 cells harboring FLT3 ITD mutant assessed as inhibition of cell growth incubated for 72 hrs

MOLM-13 = assay: Antiproliferative activity against human MOLM-13 cells harboring FLT3 ITD mutant assessed as inhibition of cell growth; assay type: functional, cell-based
[3] = Half life in rat at 10 mg/kg, po; assay type: ADME, organism-based; conditions: in vivo
[4] = Half life in Beagle dog at […], po; assay type: ADME, organism-based, Canis lupus familiaris; conditions: in vivo, dose 1.5 mg/kg
[5] = Oral bioavailability in rat at 10 mg/kg; assay type: ADME, organism-based; conditions: in vivo
[6] = target: Cyclin-dependent kinase 6 (Homo sapiens, UniProt Q00534); assay: Inhibition of human CDK6 pretreated for 20 mins followed by [gamma-33P]-ATP addition and measured after 120 mins in presence of 10 uM ATP by radiometric Hot-SpotSM Kinase assay
BaF3 [7] = assay: cells; assay type: functional, cell-based; conditions: Mus musculus, BaF3, 72 h; remark: listed apart in the source
Description: Antiproliferative activity against mouse BaF3 cells harboring FLT3 ITD/D835V mutant assessed as inhibition of cell growth incubated for 72 hrs

SR [8] = assay: Antiproliferative activity against human SR cells not addicted to FLT3 ITD mutant assessed as inhibition of cell growth; assay type: functional
HL-60 = assay: Antiproliferative activity against human HL-60 cells expressing low level wild type FLT3 assessed as inhibition of cell growth; assay type: functional, cell-based
[9] = target: Receptor-type tyrosine-protein kinase FLT3 (Homo sapiens) (UniProt P36888); assay: Inhibition of FLT3 in human MV4-11 cells assessed as decrease in phosphorylated FLT3 level incubated for 24 hrs by immunoblot analysis; assay type: cell-based; conditions: dose 20-600 nM
[10] = Clearance in human liver microsomes measured per mg protein by LC-MS/MS analysis; assay type: ADME, Microsome; conditions: read-out: CLH
[11] = target: CDK7/Cyclin H/MNAT1 (Homo sapiens) (UniProt P51946+P50613+P51948); assay: Inhibition of CDK7/Cyclin H/MAT1 (unknown origin); assay type: protein-complex assay; conditions: concentration not given here
BaF3 [12] = assay: cells; assay type: functional, cell-based; conditions: Mus musculus, BaF3, 72 h; remark: listed apart in the source
Description: Antiproliferative activity against mouse BaF3 cells harboring FLT3 ITD/F691L mutant assessed as inhibition of cell growth incubated for 72 hrs

[13] = target: Cyclin-dependent kinase 2 (Homo sapiens, UniProt P24941); assay: Inhibition of human CDK2 pretreated for 20 mins followed by [gamma-33P]-ATP addition and measured after 120 mins in presence of 10 uM ATP by radiometric Hot-SpotSM Kinase assay
K562 = assay: Antiproliferative activity against human K562 cells deficit of oncogenic FLT3 assessed as inhibition of cell growth; assay type: functional, cell-based
[14] = target: Receptor-type tyrosine-protein kinase FLT3 (Homo sapiens, UniProt P36888, D835V); assay: Binding affinity to FLT3 D835V mutant (unknown origin)
[15] = target: Receptor-type tyrosine-protein kinase FLT3 (Homo sapiens, UniProt P36888, D835V/ITD); assay: Binding affinity to FLT3 ITD/D835V mutant (unknown origin)
[16] = target: Receptor-type tyrosine-protein kinase FLT3 (Homo sapiens, UniProt P36888, N841I); assay: Binding affinity to FLT3 N841I mutant (unknown origin)
[17] = target: Receptor-type tyrosine-protein kinase FLT3 (Homo sapiens) (UniProt P36888); assay: Inhibition of FLT3 (unknown origin); conditions: concentration not given here
LOX IMVI = assay: Antiproliferative activity against human LOX IMVI cells assessed as inhibition of cell growth; assay type: functional
[18] = target: CDK4/Cyclin D3 (Homo sapiens) (UniProt P11802+P30281); assay: Inhibition of CDK4/Cyclin D3 (unknown origin); assay type: protein-complex assay; conditions: concentration not given here
[19] = target: Receptor-type tyrosine-protein kinase FLT3 (Homo sapiens, UniProt P36888, R834Q); assay: Binding affinity to FLT3 R834Q mutant (unknown origin)
SW-620 = assay: Antiproliferative activity against human SW-620 cells assessed as inhibition of cell growth; assay type: functional
[20] = target: T1, Receptor-type tyrosine-protein kinase FLT3 (Homo sapiens, UniProt P36888); assay: Binding affinity to FLT3 (unknown origin)
T1 sequence (P36888 whole entry): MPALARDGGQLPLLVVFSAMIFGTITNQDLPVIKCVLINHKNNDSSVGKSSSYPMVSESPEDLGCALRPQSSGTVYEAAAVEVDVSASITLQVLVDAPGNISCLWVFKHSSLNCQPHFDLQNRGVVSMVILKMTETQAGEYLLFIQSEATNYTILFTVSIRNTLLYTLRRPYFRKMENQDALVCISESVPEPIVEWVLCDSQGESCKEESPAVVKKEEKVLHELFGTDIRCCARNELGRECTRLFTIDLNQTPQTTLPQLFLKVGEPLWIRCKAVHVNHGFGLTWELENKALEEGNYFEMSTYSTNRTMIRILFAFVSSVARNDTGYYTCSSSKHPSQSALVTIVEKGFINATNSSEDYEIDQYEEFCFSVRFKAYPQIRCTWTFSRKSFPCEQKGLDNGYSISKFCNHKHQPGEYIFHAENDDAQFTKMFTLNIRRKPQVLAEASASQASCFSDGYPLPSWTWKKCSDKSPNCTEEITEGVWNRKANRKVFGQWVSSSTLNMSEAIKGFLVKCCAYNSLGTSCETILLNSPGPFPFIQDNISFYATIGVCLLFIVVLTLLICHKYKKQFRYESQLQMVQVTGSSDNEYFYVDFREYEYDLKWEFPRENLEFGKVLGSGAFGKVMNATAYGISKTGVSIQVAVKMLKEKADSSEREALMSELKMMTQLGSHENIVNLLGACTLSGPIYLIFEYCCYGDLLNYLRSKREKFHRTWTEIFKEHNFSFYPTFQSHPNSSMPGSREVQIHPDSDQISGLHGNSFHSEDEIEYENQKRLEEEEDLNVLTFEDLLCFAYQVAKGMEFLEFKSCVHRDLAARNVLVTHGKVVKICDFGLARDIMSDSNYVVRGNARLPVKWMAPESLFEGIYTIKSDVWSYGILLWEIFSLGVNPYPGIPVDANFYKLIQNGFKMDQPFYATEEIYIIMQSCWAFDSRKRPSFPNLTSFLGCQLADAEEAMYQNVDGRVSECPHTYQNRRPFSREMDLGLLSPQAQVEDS

MV4-11 = assay: animal or person; assay type: functional, Homo sapiens; conditions: Mus musculus, MV4-11, 336 h, route po, time 2 weeks
Description: Antitumor activity against human MV4-11 cells xenografted in nu/nu mouse assessed as inhibition of tumor growth at 50 mg/kg, po qd for 2 weeks by vernier caliper analysis

[21] = AUC(0 to t) in rat at 10 mg/kg, po; assay type: ADME, organism-based; parameters: dose 10 mg/kg, route po; conditions: in vivo
THP-1 = assay: Antiproliferative activity against human THP-1 cells expressing wild type FLT3 assessed as inhibition of cell growth; assay type: functional, cell-based
[22] = Half life in human liver microsomes by LC-MS/MS analysis; assay type: ADME, Microsome
[23] = target: T1, Receptor-type tyrosine-protein kinase FLT3; assay: Inhibition of human FLT3 using EAIYAAPFAKKK and [gamma-33P]-ATP as substrate pretreated for 20 mins followed by [gamma-33P]-ATP addition and measured after 120 mins in presence of 10 uM ATP by radiometric Hot-SpotSM Kinase assay
SR [24] = assay: Antiproliferative activity against human SR cells assessed as inhibition of cell growth; assay type: functional
[25] = target: T1, Receptor-type tyrosine-protein kinase FLT3; assay: Binding affinity to autoinhibited FLT3 (unknown origin)
[26] = target: Receptor-type tyrosine-protein kinase FLT3 (Homo sapiens) (UniProt P36888); assay: Inhibition of FLT3 in human MV4-11 cells assessed as decrease in phosphorylated ERK level incubated for 24 hrs by immunoblot analysis; assay type: cell-based; conditions: dose 20-600 nM
[27] = Cmax in Beagle dog at […], po; assay type: ADME, organism-based, Canis lupus familiaris; parameters: dose 1.5 mg/kg, route po; conditions: in vivo

Chain of Cyclin-dependent kinase 6 (Q00534 whole entry): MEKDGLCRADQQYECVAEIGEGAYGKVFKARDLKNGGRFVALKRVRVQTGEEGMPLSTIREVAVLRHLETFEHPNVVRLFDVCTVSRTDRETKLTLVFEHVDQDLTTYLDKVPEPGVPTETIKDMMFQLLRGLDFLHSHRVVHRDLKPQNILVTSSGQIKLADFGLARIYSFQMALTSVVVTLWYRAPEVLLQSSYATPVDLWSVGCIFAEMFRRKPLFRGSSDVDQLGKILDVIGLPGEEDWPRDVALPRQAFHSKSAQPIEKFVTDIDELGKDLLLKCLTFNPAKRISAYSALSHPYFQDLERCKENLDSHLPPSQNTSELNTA

Question: With O=C(Nc1ccc(N2CCNCC2)cc1)c1n[nH]cc1Nc1cc(Oc2ccccc2)ncn1 as the molecule, how does the AUC(0-t) [1] read?
Answer: 762 ng·h/mL

Question: What about the IC50 (BaF3 [2]) of the same molecule?
Answer: 39 nM

Question: And the IC50 (MOLM-13)?
Answer: 16.3 nM

Question: And the half-life [3]?
Answer: 3.5 h

Question: What about the half-life [4] of the same molecule?
Answer: 11.1 h

Question: What about the bioavailability [5] of the same molecule?
Answer: 33.3%

Question: What about the IC50 [6] of the same molecule?
Answer: 122 nM

Question: What about the IC50 (BaF3 [7]) of the same molecule?
Answer: 9 nM

Question: What about the GI50 (SR [8]) of the same molecule?
Answer: 300 nM

Question: And the IC50 (HL-60)?
Answer: 972 nM

Question: What about the inhibition [9] of the same molecule?
Answer: Dose-Dependent Effect

Question: And the microsomal CLint [10]?
Answer: 7.4 µL/min/mg

Question: And the inhibition [11]?
Answer: 80.9%

Question: And the IC50 (BaF3 [12])?
Answer: 95 nM

Question: What about the IC50 [13] of the same molecule?
Answer: 98.3 nM

Question: And the IC50 (K562)?
Answer: 572 nM

Question: What about the Kd [14] of the same molecule?
Answer: 1.54 nM

Question: What about the Kd [15] of the same molecule?
Answer: 0.58 nM

Question: And the Kd [16]?
Answer: 77.2 nM

Question: What about the inhibition [17] of the same molecule?
Answer: 99.6%

Question: What about the GI50 (LOX IMVI) of the same molecule?
Answer: < 1000 nM

Question: And the inhibition [18]?
Answer: 79.2%

Question: What about the Kd [19] of the same molecule?
Answer: 66.5 nM

Question: What about the GI50 (SW-620) of the same molecule?
Answer: < 1000 nM

Question: What about the Kd [20] of the same molecule?
Answer: 22.1 nM

Question: And the inhibition in vivo at 50 mg/kg (MV4-11)?
Answer: 94%

Question: What about the AUC(0-t) [21] of the same molecule?
Answer: 1080 ng·h/mL

Question: What about the IC50 (THP-1) of the same molecule?
Answer: 904 nM

Question: What about the half-life [22] of the same molecule?
Answer: 3.1 h

Question: And the IC50 [23]?
Answer: 0.62 nM

Question: What about the GI50 (SR [24]) of the same molecule?
Answer: < 1000 nM

Question: What about the Kd [25] of the same molecule?
Answer: 121 nM

Question: And the inhibition [26]?
Answer: Dose-Dependent Effect

Question: And the Cmax [27]?
Answer: 52.1 ng/mL
